Some test systems named below: HOP-18; UACC-62; CCRF-CEM; MCF7; M19-MEL; HOP-62; NCI/ADR-RES; HOP-92; NCI-H460; SK-MEL-2; UACC-257; A549; SNB-75; DMS-273; SK-MEL-5; NCI-H522; IGROV-1; T47D; PC-3; BT-549.
Experiment in all cases: DTP human tumour cell line panel, 48 h

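Five compound concentrations were applied to cells in 96-well plates for 48 hours; endpoints were derived by simple linear interpolation of the resulting dose-response curve. GI50 marks 50% less growth.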 Active and inactive are the calls of the source. Cut-off read from the data, not from the text of the source: active = GI50 up to about 1.1 µM and inactive = higher.

Take `COc1ccc2c(c1)CCCc1cn[nH]c1-2`: the GI50 – broadly, the concentration at which growth is held to half of that of the control – in the assay with HOP-18 is > 100 µM (inactive); in the assay with UACC-62, > 100 µM (inactive); in the assay with CCRF-CEM it was > 72.4 µM (inactive); in the assay with MCF7, > 100 µM (inactive); with M19-MEL, > 100 µM (inactive); with HOP-62, > 100 µM (inactive). Also, the GI50 in the assay with NCI/ADR-RES, in the assay on HOP-92, in the assay on NCI-H460, in the assay on SK-MEL-2, with UACC-257 and in the assay with A549 was > 100 µM (inactive) in each case. Further, the GI50 in the assay with SNB-75, in the assay with DMS-273, in the assay with SK-MEL-5 and in the assay on NCI-H522 was > 100 µM (inactive) each time.
Consider `O=C1C2=C(C3=NCCc4c[nH]c1c43)C1(C=C(Br)C(O)C(Br)=C1)CCN2` (centres undefined), for which the GI50 is 10.7 µM (inactive) in the assay with HOP-18; 0.851 µM (active) in the assay on UACC-62; 1.96 µM (inactive) in the assay with CCRF-CEM; 0.433 µM (active) in the assay with MCF7; 0.38 µM (active) in the assay on M19-MEL; 17.9 µM (inactive) with HOP-62. The 50% growth inhibitory concentration (GI50) in the assay on NCI/ADR-RES was 0.421 µM (active); in the assay on HOP-92, 2.92 µM (inactive); in the assay with NCI-H460, 2.33 µM (inactive); in the assay with IGROV-1, 0.881 µM (active); in the assay with SK-MEL-2, 3.2 µM (inactive); in the assay on UACC-257, 0.614 µM (active). The GI50 is 3.15 µM (inactive) with A549; 10 µM (inactive) in the assay with SNB-75; 1.03 µM (active) with DMS-273; 1.07 µM (active) in the assay with SK-MEL-5; 0.284 µM (active) in the assay with NCI-H522.
As to `CNC(=O)SCC(NC(=O)CCC(N)C(=O)O)C(=O)NCC(=O)O` (centres undefined), the GI50 in the assay with HOP-18 was > 82.2 µM (inactive); with UACC-62 it was 98.9 µM (inactive); with CCRF-CEM, > 50 µM (inactive); in the assay with MCF7 it was > 100 µM (inactive); with M19-MEL it was > 100 µM (inactive); in the assay with HOP-62, > 100 µM (inactive). Also, the GI50 is > 100 µM (inactive) in the assay on NCI/ADR-RES; > 68.4 µM (inactive) with HOP-92; > 100 µM (inactive) in the assay with NCI-H460; > 100 µM (inactive) in the assay with IGROV-1; > 85.7 µM (inactive) with SK-MEL-2; > 100 µM (inactive) in the assay on UACC-257. Besides, the GI50 in the assay with A549 is > 100 µM (inactive); in the assay on SNB-75, > 100 µM (inactive); with DMS-273, > 83.9 µM (inactive); in the assay with SK-MEL-5, > 100 µM (inactive); in the assay on NCI-H522, > 86.5 µM (inactive).
For `CC(C)=CCc1c(C)cc2cc3c(c(O)c2c1O)C(=O)C=C(O)C3(CC=C(C)C)C/C=C(\C)CO` (centres undefined), the GI50 was 3.61 µM (inactive) in the assay on HOP-18; 32.3 µM (inactive) in the assay with UACC-62; 11.5 µM (inactive) with CCRF-CEM; 42.7 µM (inactive) in the assay with MCF7; 37.4 µM (inactive) in the assay on M19-MEL; 36.8 µM (inactive) in the assay on HOP-62. Besides, the GI50 in the assay on NCI/ADR-RES was 47.9 µM (inactive); in the assay on HOP-92, 33.2 µM (inactive); in the assay on NCI-H460, 27.4 µM (inactive); with IGROV-1 it was 38.1 µM (inactive); in the assay with SK-MEL-2, 13 µM (inactive); with UACC-257 it was 43.7 µM (inactive). Moreover, the GI50 is 33.3 µM (inactive) in the assay on A549; 48.3 µM (inactive) in the assay with SNB-75; 52.8 µM (inactive) in the assay on DMS-273; 16.4 µM (inactive) with SK-MEL-5; 27.9 µM (inactive) with NCI-H522.
On to `CC1=C(C(=O)NNS(=O)(=O)c2ccc(C)cc2)CC(C(=O)NNS(=O)(=O)c2ccc(C)cc2)=C(C)N1`, for which the GI50 in the assay with HOP-18 was 27.1 µM (inactive); in the assay on UACC-62 it was 14.3 µM (inactive); in the assay with CCRF-CEM, > 10 µM (inactive); with M19-MEL it was 98.9 µM (inactive); in the assay on HOP-62 it was > 100 µM (inactive); with NCI-H460, > 100 µM (inactive). Further, the GI50 in the assay with IGROV-1 is > 100 µM (inactive); in the assay with SK-MEL-2 it was > 100 µM (inactive); in the assay on UACC-257, > 100 µM (inactive); with A549 it was > 100 µM (inactive); with NCI-H522, 66.5 µM (inactive).
In the case of `FC(F)(F)C1=NC(=NNc2nnc(-c3ccccc3)c(-c3ccccc3)n2)N=C(C(F)(F)F)C1`, the GI50 was 50.2 µM (inactive) with HOP-18; 3.54 µM (inactive) with UACC-62; 7.29 µM (inactive) in the assay on CCRF-CEM; 13.5 µM (inactive) in the assay with MCF7; 21.8 µM (inactive) in the assay with M19-MEL; 13.4 µM (inactive) in the assay with HOP-62. The GI50 was 67.6 µM (inactive) in the assay on NCI/ADR-RES; 15.8 µM (inactive) in the assay with HOP-92; 7.71 µM (inactive) in the assay with NCI-H460; 21.5 µM (inactive) with IGROV-1; 24.5 µM (inactive) in the assay with SK-MEL-2; 23.9 µM (inactive) with UACC-257. For the same molecule, the GI50 was 13.3 µM (inactive) in the assay with A549; 25.7 µM (inactive) in the assay with SNB-75; 5.86 µM (inactive) in the assay on DMS-273; 15.8 µM (inactive) in the assay on SK-MEL-5; 9.51 µM (inactive) with NCI-H522.
As for `ICC1CCCO1` (centres undefined), the GI50 in the assay on HOP-18, in the assay with CCRF-CEM, with HOP-92, in the assay with NCI-H460, in the assay on IGROV-1 and with SK-MEL-2 was > 100 µM (inactive) throughout. For the same molecule, the GI50 with UACC-257, in the assay on A549, with SNB-75, in the assay with DMS-273 and in the assay with SK-MEL-5 was > 100 µM (inactive) in each case.
Consider `CC(C)(C)[C@H]1CO[C@]2(C)[C@@H]3C[C@@H]3C(=O)N12`, for which the GI50 in the assay with UACC-62, with CCRF-CEM, with M19-MEL, in the assay with HOP-62, in the assay with HOP-92 and in the assay on NCI-H460 was > 100 µM (inactive) in each case. The GI50 with IGROV-1, in the assay with SK-MEL-2, in the assay with UACC-257, with A549, in the assay on SNB-75 and in the assay with DMS-273 was > 100 µM (inactive) each time. Also, the GI50 with SK-MEL-5 and with NCI-H522 was > 100 µM (inactive) in each case.
As to `O=S1(=O)C[C@H](O)[C@H](O)CS1`, the GI50 in the assay on HOP-18, with UACC-62, in the assay with M19-MEL, in the assay with HOP-62, in the assay on HOP-92 and with NCI-H460 was > 100 µM (inactive) each time. Further, the GI50 with IGROV-1, in the assay on UACC-257, with A549, with SNB-75, in the assay with DMS-273 and in the assay on SK-MEL-5 was > 100 µM (inactive) each time. In the assay with NCI-H522, the GI50 is > 100 µM (inactive).
As to `O=C1C=C(N2CC2)C(=O)C=C1N1CC1`, the GI50 is 1.05 µM (active) in the assay with T47D; 1.11 µM (active) in the assay with PC-3; 0.178 µM (active) with UACC-62; 0.0291 µM (active) in the assay with CCRF-CEM; 0.136 µM (active) with HOP-62; 0.757 µM (active) with NCI/ADR-RES. The GI50 with HOP-92 is 0.44 µM (active); with NCI-H460 it was 0.0401 µM (active); with IGROV-1, 0.753 µM (active); in the assay with SK-MEL-2, 0.12 µM (active); in the assay on UACC-257, 0.265 µM (active); in the assay on BT-549, 0.348 µM (active). Moreover, the GI50 in the assay on SNB-75 was 0.385 µM (active); in the assay with DMS-273 it was 0.0617 µM (active); in the assay on SK-MEL-5, 0.101 µM (active); with NCI-H522, 0.0652 µM (active).

For the origin of these results see ChEMBL document CHEMBL1201862, “PubChem BioAssay data set” (2004).
